Consider 1 molecule from patent US12268677B2, “4-aminopyridine (4-AP) and bone morphogenetic protein 2 (BMP-2)” (The Penn State Research Foundation, priority 2022, dated 2025).

The subject of test [1] is BMP-2 gene expression in human bone marrow mesenchymal stem cells (hBMSCs). The experiment in a line: BMP-2 gene expression in hBMSCs by quantitative real-time PCR. It counts as cell-based. The settings on record: 1000 μM 4-AP. As to the method:
FIG. 1. 4-AP upregulates BMP-2 expression in human bone marrow mesenchymal stem cells (hBMSCs). hBMSCs were incubated in Dulbecco's modified Eagle's medium supplemented with 10% FBS and penicillin/streptomycin (100 U/mL penicillin and […] streptomycin) in the presence of 1000 μM 4-AP induced expression of BMP-2 gene. BMP-2 gene expression was increased at day 3 and remained high at day 7 and day 14. The gene expression levels of BMP-2 were normalized with β-actin and were then used to calculate fold change in 4-AP treated compared to control. Data are presented as mean±SEM (n=3). Values are significant at *p<0.05, **p<0.01. Abbreviations used; BMP-2 —bone morphogenetic protein-2. Human bone marrow mesenchymal stem cells (hBMSC) were cultured in growth medium supplemented with 4-AP for 3, 7, and 14 days. Total RNA was isolated from the cells at the end of treatment, converted to cDNA, and the gene expression of bone morphogenetic protein-2 (BMP-2) was analyzed by quantitative real-time PCR. Gene expression by quantitative real-time PCR: Quantitative real-time PCR was carried out to determine gene expression of BMP-2 by hBMSCs incubated in Dulbecco's modified Eagle's medium with 10% fetal bovine serum (FBS) and penicillin/streptomycin (100 U/mL penicillin and […] streptomycin) at a humidified atmosphere of 5% CO2 under 37° C. Cell cultures were supplemented with 1000 μM 4-AP for 3, 7, and 14 days. Total RNA was isolated from the cells and converted to cDNA using verso cDNA synthesis kit (Thermo Fischer Scientific). The cDNA obtained was analyzed in a quantitative real-time PCR (FIG. 1).
On the technique in general: Quantitative PCR measures a nucleic acid by following its amplification.

The next test deals with BMP-2 protein in hBMSCs. The experiment in a line: BMP-2 protein level in hBMSCs by western blot. It counts as cell-based, human. The conditions noted are these: 1000 μM 4-AP. As to the method: FIGS. 2A-2B. Western blot analysis of BMP-2 protein. Incubation of hBMSCs in Dulbecco's modified Eagle's medium supplemented with 10% FBS and penicillin/streptomycin (100 U/mL penicillin and […] streptomycin) in the presence of 1000 μM 4-AP increased BMP-2 protein at day 3, 7, and 14. The blots were stripped and reprobed with anti-GAPDH antibody. FIG. 2A: Representative image of a western blot of BMP-2 at day 3, 7, and 14. FIG. 2B: Densitometric analysis was carried out and the BMP-2 was normalized with GAPDH to calculate fold change. Data are presented as mean±SEM (n=3). Values are significant at *p<0.05, Abbreviations used; 4—AP-4-aminopyridine, BMP-2—bone morphogenetic protein-2, GAPDH-glyceraldehyde-3-phosphate dehydrogenase. Protein level by western blot: Total protein was extracted from hBMSCs with RIPA lysis buffer at the end of 3, 7, and 14 days of 4-AP treatment. The protein concentrations of cell lysates were determined using Pierce BCA Protein Assay kit (Thermo Fischer Scientific). Total cell lysates containing equal amounts of protein were denatured with SDS reducing buffer. The denatured proteins were separated on 10% polyacrylamide gel and transferred to a PVDF membrane. The blots were blocked and probed with primary and secondary antibodies, followed by visualization of bands by chemiluminescence peroxidase substrate. The BMP-2 band intensities were analyzed by ImageJ software (FIGS. 2A and 2B).
Background: In western blotting, separated proteins are transferred to a membrane and probed.

The subject of test [2] is tibial fracture in C57BL/6J mice. The experiment in a line: Mid-diaphysis tibial fracture healing in mice, micro-CT analysis of callus. Format: in vivo.
From the text: 8 week old C57Bl/6J mice were subjected to mid-diaphysis tibial fracture, treated with 4-AP for 21 days, and harvested. FIG. 4A: Representative X-ray images at the end of 21 days of 4-AP treatment. FIG. 4B: Representative micro-CT images of tibia fracture on day 21. […] FIG. 4D: Graphical presentation of Micro CT analysis of bone mineral density (BMD), and bone volume density (BV/TV). Data are presented as mean±SEM (n=6). Values are significant at *p<0.05.
Ten-week-old male C57/BL6J mice were purchased from the Jackson laboratory (Bar Harbor, ME, USA) and were maintained in a 12-h light, 12-h dark cycle at 21.1° C. to 22.8° C. After acclimatization, all mice were randomly divided in to two groups: 1) control and 2) 4-AP.
A mid diaphysis tibial fracture was performed in ten-week-old male mice. After the mice were anesthetized with ketamine/xylazine, a 5 mm longitudinal incision will be made at the front of the proximal tibia. The mid diaphysis of the tibia will be identified, and an osteotomy will be created with a No. 11 scalpel blade preventing any comminution. A 27G hypodermic needle will be introduced into the tibial canal for intramedullary fixation. Buprenorphine was given as post-operative analgesia. X-ray images were acquired post-operatively and mice received saline or 4-AP on the same day. Control group received 100 μl of saline, and a 4-AP group received 40 μg/mouse/daily 4-AP (1.6 mg/kg) in saline intraperitoneally until day 21 post-surgery.
For micro-CT analysis, tibia of control and 4-AP mice were dissected of soft tissue and fixed in neutral buffered formalin. μCT scanning was conducted using a Scanco vivaCT 40. […] Callus area from control and 4-AP mice tibia were assessed for bone mineral density (BMD) and percent bone volume per total volume (% BV/TV).
Tibial fracture was performed in C57BL/6J mice, which were then treated with 4-AP for 21 days for the evaluation of fracture healing parameters. The bone mineral density and bone volume density were determined by micro-CT analysis at the end of 21 days 4-AP treatment.
In test [3] the test system is BMP-2 gene expression in human fetal osteoblasts (hFOB). Kind of test: BMP-2 gene expression in human fetal osteoblasts (hFOB) by quantitative real-time PCR. It counts as cell-based. The settings on record: 1000 μM 4-AP for 3 days, normalized with β-actin. As for the experimental part:
FIG. 3. 4-AP upregulates BMP-2 gene expression in human fetal osteoblasts (hFOB). […] The gene expression levels were normalized with β-actin and was then used to calculate fold change in 4-AP treated compared to control. Data are presented as mean±SEM (n=3). Values are significant at *p<0.05. Abbreviations used; 4-AP—4-aminopyridine. Human fetal osteoblasts (hFOB) were cultured in growth medium supplemented with 4-AP for 3 days. Total RNA was isolated from the cells at the end of treatment, converted to cDNA, and the gene expression of bone morphogenetic protein-2 (BMP-2) was analyzed by quantitative real-time PCR (FIG. 3).

[4] abbreviates: C57BL/6J mice, tibial fracture, 40 μg/mouse/daily 4-AP (1.6 mg/kg) intraperitoneally, 21 days, micro-CT, compared to saline treated controls.

Consider `Nc1ccncc1` [4-AP, 4-aminopyridine], for which the entries for the “BMP-2 gene expression (fold change vs control, normalized with β-actin)” value in test [1] (day 3), in test [1] (day 7) and in test [1] (day 14) were “increased”, “remained high” and “remained high”, respectively. Also, the “BMP-2 protein (western blot, normalized with GAPDH)” value in the test on BMP-2 protein in hBMSCs (day 3), in the test on BMP-2 protein in hBMSCs (day 7) and in the test on BMP-2 protein in hBMSCs (day 14) was “increased” in each case. The “bone mineral density within the callus area” value in test [2] (setting [4]) was “higher”. Besides, in test [2] (setting [4]), the “bone volume density (BV/TV) within the callus area” value is reported as “higher”. Further, the bone fracture healing result in test [2] (C57Bl/6J mice, mid-diaphysis tibial fracture, treated with 4-AP for 21 days) is listed as “enhanced”. In addition, in test [3], the “expression of BMP-2 compared with the control group” value is “significantly increased”.
